Read-outs that look alike come from different tables or passages of the source.
Columns and labels:
[1] = target: T1, PDE4B2 (Homo sapiens, UniProt Q07343); assay: In vitro PDE4B2 enzyme inhibitory activity (AMP-Glo); format: biochemical
T1 construct: purchased BPS bioscience

[2] = Pharmacokinetic assay in mice, plasma concentration by LC-MS/MS; format: in vivo, CD-1 male mice; conditions: male, CD-1, mouse
Description: Assay 2: Pharmacokinetic Assay by Using LC-MS/MS to Determine the Compound Concentration in Mice
Assay principle: LC-MS/MS was used to determine the drug concentration of the target drug in plasma at different times, and to plot the pharmacokinetic curve of the target compound in vivo.
An accurately weighed amount of the test compound was dissolved in 5% DMSO (INNOCHEM, INBZZHCAE) by vortex mixing. Subsequently, 10% Solutol (BASF, 75389809T0) was added and homogenized by vortexing.
Finally, 85% saline (Fengyuan, 220505102) was incorporated with vortex mixing to achieve dosing formulations at 0.4 mg/mL and 1.0 mg/mL.
The mice were sourced from CD-1 male mice (JH Laboratory Animal Co. LTD), with three mice for each group.
The mice were administered with 2 mg/kg intravenously (IV) or 10 mg/kg by oral gavage (PO). The blood samples were collected at 5 min (IV group only), 15 min, 30 min, 1 h, 2 h, 4h, 8h, and 24h (PO group only) after administration.
Approximately 30 μL blood samples were collected at each time point and placed into anticoagulant tubes containing EDTA-K2 anticoagulant. Plasma was obtained by centrifugation within 30 minutes. Whole blood samples before centrifugation were placed on wet ice. For each test compound, 42 plasma samples were collected.
All collected plasma samples were stored on dry ice or in a freezer until analysis. The drug concentration was determined using a Triple-quadrupole MS system (SCIEX), including standard curve and quality control preparation, and sample preparation.
Standard curve and quality control preparation: a working solution was prepared by ACN:H2O (1:1) dilution, and 3 μL of the above standard curve and quality control working solution was added to 57 μL of blank plasma.
Sample preparation: 7 μL of plasma sample was added to 70 μL of internal standard solution (Propranolol, Tolbutamide, Glipizide, Osalmid, each 200 ng/mL in ACN). The mixture was mixed for 5 minutes and centrifuged at 4000 rpm for 10 minutes. 50 μL of supernatant was taken and transferred to a new plate containing 200 μL ultrapure water for sample analysis.
Chromatographic conditions were optimized for each sample, regarding mobile phase composition, elution gradient conditions, flow rate, retention time, etc. The chromatographic column was Waters Acquity UPLC HSS T3 1.8 μm, 2.1×50 mm. The injection volume was 2 μL.
An electrospray ionization source was used in mass spectrometry. In the positive ion detection mode, the multi-channel reaction monitoring (MRM) mode was selected for secondary mass spectrometry analysis.
Based on the drug concentration-time data, pharmacokinetic parameters were calculated using WinNonlin 8.2 software according to a non-compartmental model, including peak concentration Cmax, peak time Tmax, area under the drug-time curve AUC, and elimination half-life t1/2. The AUC was calculated using the linear trapezoidal method (linear up log down).

[3] = PDE4B2 enzyme inhibition, read-out: PDE4B2 IC50
[4] = read-out: IC50 values of PDE4B2 enzyme inhibition

T1 sequence (Q07343 1-564 isoform Q07343-2): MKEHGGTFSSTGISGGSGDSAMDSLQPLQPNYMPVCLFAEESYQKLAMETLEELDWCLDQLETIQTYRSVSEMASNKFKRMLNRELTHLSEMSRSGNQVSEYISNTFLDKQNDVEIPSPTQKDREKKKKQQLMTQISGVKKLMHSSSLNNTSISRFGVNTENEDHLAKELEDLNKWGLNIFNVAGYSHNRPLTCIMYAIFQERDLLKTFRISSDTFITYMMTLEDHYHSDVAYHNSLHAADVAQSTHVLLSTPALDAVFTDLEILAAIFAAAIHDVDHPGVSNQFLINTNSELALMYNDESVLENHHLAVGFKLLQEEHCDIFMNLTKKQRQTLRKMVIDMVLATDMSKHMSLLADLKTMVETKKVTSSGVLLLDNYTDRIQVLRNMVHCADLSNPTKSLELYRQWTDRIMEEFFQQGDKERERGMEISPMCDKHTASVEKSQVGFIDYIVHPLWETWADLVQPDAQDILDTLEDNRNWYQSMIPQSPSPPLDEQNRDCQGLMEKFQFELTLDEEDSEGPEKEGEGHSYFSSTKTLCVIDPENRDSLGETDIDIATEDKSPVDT

| IC50 [1, 3] [nM] | AUC(0-inf) ([2]; IV, 2 mg/kg) [ng·h/mL] | clearance ([2]; IV, 2 mg/kg) [mL/min/kg] | half-life ([2]; IV, 2 mg/kg) [h] | AUC(0-inf) ([2]; PO, 10 mg/kg) [ng·h/mL] | Cmax ([2]; PO, 10 mg/kg) [ng/mL] | Tmax ([2]; PO, 10 mg/kg) [h] | IC50 [1, 4] [nM] | SMILES |
| --- | --- | --- | --- | --- | --- | --- | --- | --- |
| ≤ 2 | – | – | – | – | – | – | < 1 | COC1(c2ccc(OC(F)F)cc2)CN(c2nc3c(c(NC4(CO)CCC4)n2)[S+]([O-])CC3)C1 (racemic) [Compound 105, (R/S)-2-(3-(4-(difluoromethoxy)phenyl)-3-methoxyazetidin-1-yl)-4-((1-(hydroxymethyl)cyclobutyl)amino)-6,7-dihydrothieno[3,2-d]pyrimidine 5-oxide] |
| ≤ 2 | – | – | – | – | – | – | < 1 | COC1(c2ccc(N3CCCC3)cc2)CN(c2nc3c(c(NC4(CO)CCC4)n2)[S+]([O-])CC3)C1 (racemic) [Compound 107, (R/S)-4-((1-(hydroxymethyl)cyclobutyl)amino)-2-(3-methoxy-3-(4-(pyrrolidin-1-yl)phenyl)azetidin-1-yl)-6,7-dihydrothieno[3,2-d]pyrimidine 5-oxide] |
| ≤ 2 | – | – | – | – | – | – | < 1 | COc1ccc(C2(OC)CN(c3nc4c(c(NC5CCOCC5)n3)[S+]([O-])CC4)C2)cc1 (racemic) [Compound 108, (R/S)-2-(3-methoxy-3-(4-methoxyphenyl)azetidin-1-yl)-4-((tetrahydro-2H-pyran-4-yl)amino)-6,7-dihydrothieno[3,2-d]pyrimidine 5-oxide] |

Second part, the compound before the results:

| SMILES | IC50 [1, 3] [nM] | AUC(0-inf) ([2]; IV, 2 mg/kg) [ng·h/mL] | clearance ([2]; IV, 2 mg/kg) [mL/min/kg] | half-life ([2]; IV, 2 mg/kg) [h] | AUC(0-inf) ([2]; PO, 10 mg/kg) [ng·h/mL] | Cmax ([2]; PO, 10 mg/kg) [ng/mL] | Tmax ([2]; PO, 10 mg/kg) [h] | IC50 [1, 4] [nM] |
| --- | --- | --- | --- | --- | --- | --- | --- | --- |
| [O-][S+]1CCc2nc(N3Cc4ccc(Cl)cc4C3)nc(NC3(CO)CCC3)c21 (racemic) [Compound 25, (R/S)-2-(5-chloroisoindolin-2-yl)-4-((1-(hydroxymethyl)cyclobutyl)amino)-6,7-dihydrothieno[3,2-d]pyrimidine 5-oxide] | 2 to 5 | 17600 | 2.4 | 5.01 | 23100 | 5950 | 1.33 | – |
| COC1(c2ccc(OCC3CC3)cc2)CN(c2nc3c(c(NC4(CO)CCC4)n2)[S+]([O-])CC3)C1 (racemic) [Compound 106, (R/S)-2-(3-(4-(cyclopropylmethoxy)phenyl)-3-methoxyazetidin-1-yl)-4-((1-(hydroxymethyl)cyclobutyl)amino)-6,7-dihydrothieno[3,2-d]pyrimidine 5-oxide] | ≤ 2 | – | – | – | – | – | – | – |
| COC1(c2ccc(N(C)C)cc2)CN(c2nc3c(c(NC4(CO)CCC4)n2)[S+]([O-])CC3)C1 (racemic) [Compound 109, (R/S)-2-(3-(4-(dimethylamino)phenyl)-3-methoxyazetidin-1-yl)-4-((1-(hydroxymethyl)cyclobutyl)amino)-6,7-dihydrothieno[3,2-d]pyrimidine 5-oxide] | ≤ 2 | – | – | – | – | – | – | < 1 |
| CNc1ccc(C2(OC)CN(c3nc4c(c(NC5(CO)CCC5)n3)[S+]([O-])CC4)C2)cc1 (racemic) [Compound 112, (R/S)-4-((1-(hydroxymethyl)cyclobutyl)amino)-2-(3-methoxy-3-(4-(methylamino)phenyl)azetidin-1-yl)-6,7-dihydrothieno[3,2-d]pyrimidine 5-oxide] | ≤ 2 | – | – | – | – | – | – | – |
| [O-][S+]1CCc2nc(N3CCC(c4ncc(Cl)cn4)CC3)nc(NC3(CO)CCC3)c21 (stereo not drawn) [Control 1, reference compound] | 20 to 50 | 2900 | 11.8 | 1.57 | 12100 | 2250 | 0.5 | – |

— US20260242393A1, “Preparation Method for and Use of Dihydrothienopyrimidine Derivative” (Innovstone Therapeutics Limited, priority 2023, published 2026)
